One test deals with T1, Menin-M327I (Homo sapiens, UniProt O00255, M322I).
T1 sequence (O00255 1-615 isoform O00255-1 M327I): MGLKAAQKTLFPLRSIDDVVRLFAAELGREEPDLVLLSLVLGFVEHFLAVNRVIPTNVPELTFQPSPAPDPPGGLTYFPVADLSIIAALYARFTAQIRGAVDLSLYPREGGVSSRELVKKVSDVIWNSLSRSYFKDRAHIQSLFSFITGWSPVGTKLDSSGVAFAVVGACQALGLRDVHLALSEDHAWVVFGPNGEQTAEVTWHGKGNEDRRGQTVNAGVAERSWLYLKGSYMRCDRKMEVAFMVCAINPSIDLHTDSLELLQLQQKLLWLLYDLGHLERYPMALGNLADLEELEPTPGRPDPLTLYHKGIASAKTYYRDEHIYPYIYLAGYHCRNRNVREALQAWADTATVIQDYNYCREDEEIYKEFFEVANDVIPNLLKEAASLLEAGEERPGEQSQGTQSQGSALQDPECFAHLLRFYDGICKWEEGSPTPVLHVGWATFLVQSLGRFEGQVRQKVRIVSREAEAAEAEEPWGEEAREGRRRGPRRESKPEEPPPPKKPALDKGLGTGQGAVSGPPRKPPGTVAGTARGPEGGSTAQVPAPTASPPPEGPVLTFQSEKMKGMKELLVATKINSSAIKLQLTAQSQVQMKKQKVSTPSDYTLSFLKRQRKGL
Kind of test: Fluorescence polarization assay of Menin binding to MLL peptide, M327I mutant. To be noted: FP, 8 nM Menin, 4 nM MLL peptide. The source says:
(§1) • 1. Objective: To evaluate the inhibitory activity of compounds against wild-type Menin protein (Menin-WT) and its mutant variants (Menin-M327V, Menin-M327I, Menin-T349M, Menin-S160T, Menin-S160C, Menin-G331R, and Menin-G331D). • 2. Experimental Principle: The experiment employed fluorescence polarization (FP) to detect the binding of wild-type Menin protein and its mutant variants to MLL peptide. In the absence of inhibitors, binding of wild-type Menin protein and its mutant variants to MLL peptide generates a high FP signal; upon addition of inhibitors, the binding between Menin proteins and MLL peptide is disrupted, resulting in a low FP signal. • 3. Experimental Materials: Final concentration of wild-type Menin protein and its mutant variants: 8 nM; final concentration of MLL peptide: 4 nM. Assay buffer: 50 mM Tris-HCl (pH 8.0), 120 mM NaCl, 0.005% CA-630, 2 mM DTT. • 4. […] The plate was centrifuged at 1000 rpm for 60 seconds. Subsequently, 10 µL of MLL peptide was added to each assay well. The plate was centrifuged at 1000 rpm for 60 seconds and sealed with a sealing membrane. After incubation at 23°C for 60 minutes, the plate was read using a PerkinElmer Envision reader. Data Analysis: [formula]
(§2) Curve fitting: XLFIT software was used for curve fitting, employing a four-parameter logistic model with percent inhibition versus log(compound concentration) as variables.

The target in test [1] is T2, wild-type Menin protein (Menin-WT) (Homo sapiens, UniProt O00255).
T2 sequence (O00255 1-615 isoform O00255-1): T1 sequence (O00255 1-615 isoform O00255-1 M327I) with I327M
The experiment in a line: Fluorescence polarization assay of Menin binding to MLL peptide, wild type. To be noted: FP, 8 nM Menin, 4 nM MLL peptide.
Excerpt: as §1, §2
On the technique in general: Fluorescence polarisation rises when a labelled molecule tumbles more slowly, as on binding a larger partner.

A further test has as its system MV-4-11 cells. Kind of test: Antiproliferative activity, CellTiter-Glo, 7 days (Test Example 2), MV-4-11. It is filed as cell-based. The note with it: Homo sapiens, MV4-11, 168 h, 7 days incubation. The source says: [0134] 1. Experimental Principle: MV-4-11, Molm-13, and OCI-AML-3 cells are human hematologic tumor cell lines harboring the Menin-MLL fusion. HL-60 is a wild-type human hematologic tumor cell line without Menin-MLL fusion. […] 2. Experimental Materials: MV-4-11, Molm-13, OCI-AML-3, and HL-60 cells were all purchased from Cobioer; CellTiter-Glo® was purchased from Promega (Cat. #G7571); RPMI-1640 was purchased from Viva Cell (Cat. #C3010-0500); IMDM was purchased from Viva Cell (Cat. #C3040-0500); fetal bovine serum (FBS) was purchased from Biosera (Cat. #FB-1058/500); penicillin-streptomycin was purchased from BasalMedia (Cat. #S110JV); 0.25% Trypsin-EDTA was purchased from BasalMedia (Cat. #S310KJ); dimethyl sulfoxide (DMSO) was purchased from Sinopharm (Cat. #30072418); 96-well plates were purchased from Corning (Cat. #3610); incubator was obtained from PHCbi (Model: MCO-18AC); inverted microscope was obtained from Mingmei (Cat. #MI52-0); automated cell counter was obtained from BodBoge (Model: JSY-SC-031N); microplate reader was obtained from PerkinElmer (Model: Envision); data processing software: GraphPad Prism 8.0. 3. Experimental Methods: Four cell lines in logarithmic growth phase were resuspended in their respective growth media (MV-4-11: IMDM + 20% FBS; Molm-13: RPMI-1640 + 20% FBS; OCI-AML-3: RPMI-1640 + 20% FBS; HL-60: RPMI-1640 + 10% FBS) and diluted to target densities (12,500, 6,250, 12,500, and 12,500/mL, respectively). The cell suspensions were seeded into 96-well plates at 80 µL per well and incubated overnight at 37°C in a 5% CO2 incubator. Culture medium served as the background control. Test compounds were dissolved in DMSO to prepare 10 mmol/L stock solutions. The stock solutions were first diluted to 2 mmol/L with DMSO, followed by 4-fold serial dilutions to generate 10 concentrations. From each concentration, 2 µL was diluted with 78 µL growth medium. […] After incubation at room temperature for 10 minutes, luminescence values were read using the EnVision microplate reader, and IC50 values were calculated using GraphPad Prism 8.0 software. […]

We go through two compounds from patent EP4775580A1, “COMPOUND, PHARMACEUTICAL COMPOSITION COMPRISING SAME, AND USE THEREOF” (Euregen Biopharma Co., Ltd., priority 2023, dated 2025).

Changes are numbered by the printed parent chain.

The term IC50 denotes the concentration that inhibits the measured activity by half. The low end stands for higher potency, the high end for lower potency. Take `CCN(C(=O)c1cc(F)ccc1N1CCN([C@@H]2CCN([C@H](CCCN(C)CCOC)C(C)C)C2)c2ncncc21)C(C)C` [Example 3]: the values for the IC50 (on Menin-M327I; in test [1]; with MV-4-11 cells) were 40.7 nM, 13 nM and 10.1 nM, respectively.

Turning to `CCN(C(=O)c1cc(F)ccc1Oc1cncnc1N1CC2(CCN(C[C@H]3CC[C@H](NS(=O)(=O)CC)CC3)CC2)C1)C(C)C` [SNDX-5613, revumenib], the IC50 at Menin-M327I came out at 928 nM; in test [1], 17.6 nM; in the test with MV-4-11 cells it was 14.4 nM.
